According to PMC4774911, “Biochemical Screening of Five Protein Kinases from Plasmodium falciparum against 14,000 Cell-Active Compounds” (PLoS ONE, 2016):
pKd: −log10 of the molar value. Values joined by “and” are separate entries in the source; they are usually repeats but may differ in a detail not shown here. Equal entries are not always repeated.

Legend:
Experiment in all cases: biochemical
Set-up in all cases: endogenous in cells; host or cells: K562 cell extract; species or system K562 (extract); replicate k of n = 2 (each experiment ID is one independent experiment; two experiment IDs per compound)
Conditions in all cases: read-out: KDapp
[1] = biological target: AAK1 (Homo sapiens, UniProt Q2M2I8)
[2] = biological target: T1, ACVR1 (Homo sapiens, UniProt Q04771)
T1 sequence (Q04771 1-509): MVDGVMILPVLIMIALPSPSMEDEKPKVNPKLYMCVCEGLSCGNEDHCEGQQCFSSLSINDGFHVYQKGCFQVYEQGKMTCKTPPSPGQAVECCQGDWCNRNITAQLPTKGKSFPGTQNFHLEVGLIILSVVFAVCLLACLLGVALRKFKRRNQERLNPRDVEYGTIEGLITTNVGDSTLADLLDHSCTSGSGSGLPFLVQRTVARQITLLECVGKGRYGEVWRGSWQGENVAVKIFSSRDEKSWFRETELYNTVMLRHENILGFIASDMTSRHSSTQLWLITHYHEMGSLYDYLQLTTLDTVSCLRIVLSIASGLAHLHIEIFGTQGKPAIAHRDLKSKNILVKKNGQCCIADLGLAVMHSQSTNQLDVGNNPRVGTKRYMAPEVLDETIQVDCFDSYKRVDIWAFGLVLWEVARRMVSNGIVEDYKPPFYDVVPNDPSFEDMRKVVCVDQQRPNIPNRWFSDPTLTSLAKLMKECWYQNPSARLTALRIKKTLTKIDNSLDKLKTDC

[3] = biological target: T2, BMPR2 (Homo sapiens, UniProt Q13873)
T2 sequence (Q13873 1-1038): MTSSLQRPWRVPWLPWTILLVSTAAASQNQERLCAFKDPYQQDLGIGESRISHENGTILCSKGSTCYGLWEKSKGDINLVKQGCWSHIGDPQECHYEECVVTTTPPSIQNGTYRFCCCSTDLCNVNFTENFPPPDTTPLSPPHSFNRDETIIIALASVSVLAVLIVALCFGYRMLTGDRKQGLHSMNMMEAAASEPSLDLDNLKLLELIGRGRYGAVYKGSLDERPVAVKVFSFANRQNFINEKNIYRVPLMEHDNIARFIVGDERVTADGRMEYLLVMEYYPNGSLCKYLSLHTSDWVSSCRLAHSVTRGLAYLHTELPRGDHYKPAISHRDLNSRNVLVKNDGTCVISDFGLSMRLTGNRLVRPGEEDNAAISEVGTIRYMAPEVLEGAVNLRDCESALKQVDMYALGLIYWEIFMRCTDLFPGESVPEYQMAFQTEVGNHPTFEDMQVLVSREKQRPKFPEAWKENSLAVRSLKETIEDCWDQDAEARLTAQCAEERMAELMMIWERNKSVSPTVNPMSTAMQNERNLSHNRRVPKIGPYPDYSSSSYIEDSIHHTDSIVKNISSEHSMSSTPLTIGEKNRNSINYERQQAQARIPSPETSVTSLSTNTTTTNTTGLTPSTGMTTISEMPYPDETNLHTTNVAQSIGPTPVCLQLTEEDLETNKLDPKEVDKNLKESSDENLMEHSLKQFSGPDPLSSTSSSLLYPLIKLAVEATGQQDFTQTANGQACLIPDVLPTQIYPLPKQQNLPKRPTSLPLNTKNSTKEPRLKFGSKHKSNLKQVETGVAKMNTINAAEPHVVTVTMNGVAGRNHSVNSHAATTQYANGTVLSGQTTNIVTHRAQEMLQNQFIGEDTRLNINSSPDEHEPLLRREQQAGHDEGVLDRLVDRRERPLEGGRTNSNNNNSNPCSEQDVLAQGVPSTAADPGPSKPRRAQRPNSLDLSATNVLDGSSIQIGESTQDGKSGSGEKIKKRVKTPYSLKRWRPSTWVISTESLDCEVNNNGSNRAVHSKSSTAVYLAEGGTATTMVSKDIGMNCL

[4] = biological target: T3, MASTL (Homo sapiens, UniProt Q96GX5)
T3 sequence (Q96GX5 1-879): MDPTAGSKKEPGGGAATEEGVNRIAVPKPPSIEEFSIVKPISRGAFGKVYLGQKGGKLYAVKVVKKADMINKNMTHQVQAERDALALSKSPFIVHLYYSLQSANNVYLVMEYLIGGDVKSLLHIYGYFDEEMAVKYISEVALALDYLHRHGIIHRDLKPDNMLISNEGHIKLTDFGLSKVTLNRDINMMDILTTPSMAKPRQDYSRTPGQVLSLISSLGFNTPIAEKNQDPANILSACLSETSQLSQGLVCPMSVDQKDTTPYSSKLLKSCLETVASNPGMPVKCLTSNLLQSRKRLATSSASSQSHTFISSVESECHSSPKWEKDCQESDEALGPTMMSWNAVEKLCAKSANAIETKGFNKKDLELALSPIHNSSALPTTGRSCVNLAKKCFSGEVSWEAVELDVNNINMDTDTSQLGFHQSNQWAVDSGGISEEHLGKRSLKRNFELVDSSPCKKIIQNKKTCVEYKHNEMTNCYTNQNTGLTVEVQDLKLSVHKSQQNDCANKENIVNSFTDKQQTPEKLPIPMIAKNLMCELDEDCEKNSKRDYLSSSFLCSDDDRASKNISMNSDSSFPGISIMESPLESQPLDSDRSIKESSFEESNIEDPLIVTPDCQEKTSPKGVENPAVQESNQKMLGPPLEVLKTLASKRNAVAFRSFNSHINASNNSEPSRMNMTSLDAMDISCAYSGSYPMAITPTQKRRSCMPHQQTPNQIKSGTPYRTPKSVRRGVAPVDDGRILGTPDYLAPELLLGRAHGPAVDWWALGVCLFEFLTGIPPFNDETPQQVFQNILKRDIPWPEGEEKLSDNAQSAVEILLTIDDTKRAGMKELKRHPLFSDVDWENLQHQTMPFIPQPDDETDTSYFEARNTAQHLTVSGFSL

[5] = biological target: PRKCA (Homo sapiens, UniProt P17252)

Sequence of AAK1 (Q2M2I8 whole entry): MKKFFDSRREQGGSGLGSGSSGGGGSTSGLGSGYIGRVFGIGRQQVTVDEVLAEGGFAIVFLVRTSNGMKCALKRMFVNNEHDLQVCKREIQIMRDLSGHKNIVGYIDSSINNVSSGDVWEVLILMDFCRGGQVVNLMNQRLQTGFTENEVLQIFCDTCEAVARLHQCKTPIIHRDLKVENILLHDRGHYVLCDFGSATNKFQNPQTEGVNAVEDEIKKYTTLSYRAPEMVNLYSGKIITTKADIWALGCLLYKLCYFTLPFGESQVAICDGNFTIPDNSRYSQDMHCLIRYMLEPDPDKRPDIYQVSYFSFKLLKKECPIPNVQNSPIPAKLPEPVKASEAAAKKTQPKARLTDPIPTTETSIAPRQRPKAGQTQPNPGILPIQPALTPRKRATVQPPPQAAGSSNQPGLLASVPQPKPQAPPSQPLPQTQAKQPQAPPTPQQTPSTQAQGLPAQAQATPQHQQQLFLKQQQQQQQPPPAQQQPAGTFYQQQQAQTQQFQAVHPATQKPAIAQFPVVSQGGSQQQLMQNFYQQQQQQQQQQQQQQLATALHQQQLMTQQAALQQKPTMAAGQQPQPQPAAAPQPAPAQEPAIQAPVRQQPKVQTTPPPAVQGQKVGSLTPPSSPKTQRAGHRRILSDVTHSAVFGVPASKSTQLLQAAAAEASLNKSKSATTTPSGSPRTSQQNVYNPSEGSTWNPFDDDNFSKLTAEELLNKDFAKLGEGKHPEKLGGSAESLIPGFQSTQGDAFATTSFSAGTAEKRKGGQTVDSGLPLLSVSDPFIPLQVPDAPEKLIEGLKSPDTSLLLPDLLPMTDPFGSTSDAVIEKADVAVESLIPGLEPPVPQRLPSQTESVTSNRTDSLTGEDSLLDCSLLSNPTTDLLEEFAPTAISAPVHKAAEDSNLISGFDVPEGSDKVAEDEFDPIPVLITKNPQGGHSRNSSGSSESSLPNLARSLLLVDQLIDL

CN1CCN(c2ccc(Nc3ncc(C#N)c(Nc4ccccc4C(N)=O)n3)cc2)CC1.Cl [TCMDC-134116]
pKd [1]: 7.44
pKd [2]: 5.66
pKd [3]: 5.46 and 5.32
pKd [4]: 6.56 and 6.22
pKd [5]: 6.41
